In patent US20240034736A1, “HSD17B13 INHIBITORS AND USES THEREOF” (FL2022-001, Inc., priority 2020, published 2024):

Each compound was assayed against Recombinant human HSD17B13 enzyme (Homo sapiens (Human), UniProt Q7Z5P4) (assay: HSD17b13 NAD(P)H-Glo Biochemical Assay). Conditions: 50 uM estradiol, 1 mM NAD+; read-out: HSD17β13 IC50.
In short: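 Recombinant human HSD17B13 was pre-incubated with inhibitor for 20 min at RT in 20 mM Tris pH 7.4 with 0.002% Tween-20 and 0.02% BSA. Reaction then ran with 50 uM estradiol and 1 mM NAD+ (final) for 3 h at 37° C. NADH formed was detected by NAD(P)H-Glo luminescence after 1 h at RT.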

Recombinant human HSD17B13 enzyme, sequence (Q7Z5P4 20-300): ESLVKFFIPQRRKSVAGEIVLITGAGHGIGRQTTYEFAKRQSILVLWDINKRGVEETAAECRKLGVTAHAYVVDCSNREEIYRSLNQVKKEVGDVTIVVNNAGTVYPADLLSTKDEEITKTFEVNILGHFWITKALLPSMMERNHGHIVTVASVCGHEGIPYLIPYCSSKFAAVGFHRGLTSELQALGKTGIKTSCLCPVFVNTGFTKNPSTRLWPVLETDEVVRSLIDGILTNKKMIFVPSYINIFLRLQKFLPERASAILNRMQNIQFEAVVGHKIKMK

IC50	SMILES
1 to 30 µM	O=C(O)c1cccc(-c2ccc3c(cnn3-c3ccc(F)c(O)c3)c2)c1 [Compound 5.24, 3-(1-(4-Fluoro-3-hydroxyphenyl)-1H-indazol-5-yl)benzoic acid]
0.1 to 1 µM	CS(=O)(=O)N1CCN(c2cc3cn(-c4cc(O)c(Cl)c(F)c4)nc3cn2)CC1 [Compound 19.18, 2-Chloro-3-fluoro-5-(5-(4-(methylsulfonyl)piperazin-1-yl)-2H-pyrazolo[3,4-c]pyridine-2-yl)phenol]
0.1 to 1 µM	CC(C)S(=O)(=O)N1CCN(c2ccc3c(cnn3-c3cc(O)c(F)c(F)c3)c2)CC1 [Compound 21.04, 2,3-Difluoro-5-(5-(4-(isoprop-ylsulfonyl)piperazin-1-yl)-1H-indazol-1-yl)phenol]
1 to 30 µM	O=S1(=O)CCN(c2ccc3c(cnn3-c3cc(O)c(F)c(F)c3)c2)CC1 [Compound 21.08, 4-(1-(3,4-Difluoro-5-hydroxy-phenyl)-1H-indazol-5-yl)-thiomorpholine 1,1-dioxide]
0.1 to 1 µM	Cc1nn(-c2cc(O)c(F)c(F)c2)c2ccc(N3CCN(S(C)(=O)=O)CC3)cc12 [Compound 21.01, 2,3-Difluoro-5-(3-methyl-5-(4-(methylsulfonyl)piperazin-1-yl)-1H-indazol-1-yl)phenol]
0.1 to 1 µM	Oc1ccc(-c2cc3cnn(-c4cc(O)c(F)c(F)c4)c3cc2Cl)cc1Cl [Compound 4.16, 5-(6-Chloro-5-(3-chloro-4-hydroxyphenyl)-1H-indazol-1-yl)-2,3-difluorophenol]
0.1 to 1 µM	COc1ccc(-c2ccc3c(cnn3-c3cc(O)c(F)c(C(F)(F)F)c3)c2)cc1Cl [Compound 1.02, 5-(5-(3-Chloro-4-methoxyphenyl)-1H-indazol-1-yl)-2-fluoro-3-(trifluoromethyl)phenol]
0.1 to 1 µM	CN(c1ccc2c(c1)c(Cl)nn2-c1cc(C(F)(F)F)c(F)c(O)c1F)C1CCOCC1 [Compound 19.87, 3-(3-Chloro-5-(methyl(tetrahydro-2H-pyran-4-yl)amino)-1H-indazol-1-yl)-2,6-difluoro-5-(trifluoromethyl)phenol]
0.1 to 1 µM	Cc1nn(-c2cc(C(F)(F)F)c(F)c(O)c2F)c2cnc(N3CCC(OCC4CC4)CC3)cc12 [Compound 19.59, 3-(5-(4-(Cyclopropylmethoxy)piperidin-1-yl)-3-methyl-1H-pyrazolo[3,4-c]pyridine-1-yl)-2,6-difluoro-5-(trifluoromethyl)phenol]
0.1 to 1 µM	CC1(C)CC=C(c2ccc3c(cnn3-c3cc(O)c(F)c(C(F)(F)F)c3)c2)CC1 [Compound 18.01, 5-(5-(4,4-Dimethylcyclohex-1-en-1-yl)-1H-indazol-1-yl)-2-fluoro-3-(trifluoromethyl)phenol]
0.1 to 1 µM	COc1ccc(Nc2ccc3c(cnn3-c3ccc(F)c(O)c3)c2)cc1Cl [Compound 22, 5-(5-((3-Chloro-4-methoxyphenyl)amino)-1H-indazol-1-yl)-2-fluorophenol]
< 0.1 µM	Cc1nn(-c2cc(C(F)(F)F)c(F)c(O)c2F)c2cc(F)c(N3CCN(S(C)(=O)=O)CC34CC4)cc12 [Compound 19.100, 2,6-Difluoro-3-(6-fluoro-3-methyl-5-(7-(methylsulfonyl)-4,7-diazaspiro[2.5]octan-4-yl)-1H-indazol-1-yl)-5-(trifluoromethyl)phenol]
0.1 to 1 µM	O=S(=O)(c1ccc2c(cnn2-c2cc(O)c(F)c(F)c2)c1)N1CCOCC1 [Compound 30.01, 2,3-Difluoro-5-(5-(morpholinosulfonyl)-1H-indazol-1-yl)phenol]
